Laboratory results published in PubChem BioAssay (NCI).
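Compound exposure: 48 hours, 5 concentrations, 96-well plates. GI50 = concentration required for 50% inhibition of growth. TGI denotes the concentration required for complete inhibition of growth.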

What was measured:
Experiment in all cases: NCI anticancer screen, dose series, 48 h
[1] = system: CAKI-1 renal
[2] = system: DU-145 prostate
[3] = system: HL-60(TB) leukemia
[4] = system: HOP-92 NSCLC
[5] = system: HT29 colon
[6] = system: LOX IMVI melanoma
[7] = system: MDA-MB-231 breast
[8] = system: SF-295 CNS
[9] = system: SR leukemia
[10] = system: T-47D breast

| Structure (SMILES) | GI50 [1] | TGI [1] | GI50 [2] | TGI [2] | GI50 [3] | TGI [3] | GI50 [4] | TGI [4] | GI50 [5] | TGI [5] | GI50 [6] | TGI [6] | GI50 [7] | TGI [7] | GI50 [8] | TGI [8] | GI50 [9] | TGI [9] | GI50 [10] | TGI [10] |
| --- | --- | --- | --- | --- | --- | --- | --- | --- | --- | --- | --- | --- | --- | --- | --- | --- | --- | --- | --- | --- |
| CS(=O)(=O)Nc1cccc(-c2ccc3ncnc(Nc4ccc(F)c(Cl)c4)c3c2)c1 | 0.447 µM | 19.2 µM | 1.29 µM | 13.8 µM | 3.53 µM | 43.3 µM | 1.72 µM | 5.25 µM | 1.64 µM | 3.73 µM | 1.46 µM | 2.89 µM | 1.4 µM | 3.45 µM | 1.47 µM | 3.08 µM | 1.43 µM | 5.32 µM | 0.731 µM | 5.17 µM |
| CN(C)CCCn1c(=O)c2ccccc2c2cnc3[nH]ccc3c21 | 1.94 µM | 4.66 µM | 2.14 µM | 8.97 µM | 3.27 µM | 9.08 µM | 1.8 µM | 8.16 µM | 1.27 µM | 8.35 µM | 0.631 µM | 3.27 µM | 1.99 µM | 8.83 µM | 1.18 µM | 6.65 µM | 0.63 µM | 13.6 µM | 2.5 µM | 7.42 µM |
| Cc1ccc([N+](=O)[O-])c2c(NCCNC(=O)c3cc(C(=O)NCCNc4ccnc5c(C)ccc([N+](=O)[O-])c45)n(C)n3)ccnc12 | – | > 100 µM | – | > 100 µM | – | > 76.1 µM | – | > 100 µM | – | > 100 µM | – | > 64.7 µM | – | > 84.8 µM | – | > 100 µM | – | > 82 µM | – | > 100 µM |
| O=C(Nc1ccccc1I(=O)=O)C1CCCCC1 | > 100 µM | > 100 µM | > 100 µM | > 100 µM | 57.6 µM | > 100 µM | > 100 µM | > 100 µM | > 100 µM | > 100 µM | > 100 µM | > 100 µM | > 100 µM | > 100 µM | > 100 µM | > 100 µM | > 100 µM | > 100 µM | 58.5 µM | > 100 µM |
| O=[N+]([O-])c1ccc(Cl)c(CNc2ncnc3c2ncn3C2CCCCO2)c1 (stereo not given) | – | > 100 µM | – | > 100 µM | – | 73.2 µM | – | > 100 µM | – | > 100 µM | – | > 100 µM | – | > 100 µM | – | > 100 µM | – | 64.4 µM | – | > 100 µM |
| C#Cc1cccc(Nc2nc(Cl)nc3cc(NC(=O)CCl)ccc23)c1 | 1.85 µM | 5.17 µM | 0.806 µM | 2.8 µM | 1.42 µM | 7.27 µM | 1.23 µM | 2.86 µM | 0.766 µM | 4.43 µM | 0.41 µM | 0.809 µM | 0.758 µM | 2.73 µM | 3.89 µM | 7.33 µM | 0.542 µM | 1.68 µM | 0.556 µM | 1.65 µM |
| Nc1nc2c(C(=O)NCc3cccs3)nnn2c2cccc(Cl)c12 | – | > 100 µM | – | > 100 µM | – | > 100 µM | – | > 100 µM | – | > 100 µM | – | > 100 µM | – | > 100 µM | – | > 100 µM | – | > 100 µM | – | 50.7 µM |
| CC/C(Cc1ccccc1)=C(\c1ccc(OCCN2CCCC2)cc1)c1ccc(OC(=O)NCc2ccccc2)cc1 | 1.63 µM | 3.02 µM | 2.14 µM | 4.7 µM | 1.93 µM | 3.98 µM | 1.58 µM | 3.19 µM | 1.82 µM | 3.47 µM | 1.71 µM | 3.1 µM | 1.84 µM | 3.35 µM | 1.7 µM | 3.14 µM | 1.57 µM | 4.07 µM | 1.41 µM | 4.23 µM |
| CCOC(=O)C(Cc1ccc(N(CCCl)CCCl)cc1)NC(=O)C(Cc1ccccc1)NC=O (stereo not given) | – | 0.264 µM | – | 0.38 µM | – | 0.279 µM | – | 0.419 µM | – | 0.289 µM | – | 0.301 µM | – | 0.344 µM | – | 0.523 µM | – | 0.824 µM | – | 0.241 µM |
